The target of the experiment is T1, acid ceramidase (Homo sapiens, UniProt Q13510).
T1 construct: host or cells: unnamed cells; lysate 'enriched with acid ceramidase'
T1 sequence (Q13510 22-395): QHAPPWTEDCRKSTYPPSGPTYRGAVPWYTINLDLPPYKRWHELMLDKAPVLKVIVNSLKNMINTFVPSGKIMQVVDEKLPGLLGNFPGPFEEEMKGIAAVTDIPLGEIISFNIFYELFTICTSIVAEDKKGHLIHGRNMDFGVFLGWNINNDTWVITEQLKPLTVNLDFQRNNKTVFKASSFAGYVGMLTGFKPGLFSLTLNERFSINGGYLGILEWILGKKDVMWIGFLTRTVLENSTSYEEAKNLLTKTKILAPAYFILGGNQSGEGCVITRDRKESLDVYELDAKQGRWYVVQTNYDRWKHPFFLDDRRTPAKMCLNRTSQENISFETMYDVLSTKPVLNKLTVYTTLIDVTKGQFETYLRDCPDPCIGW
Description: acid ceramidase fluorescent intensity assay with fluorogenic substrate Rbm 14-12. The class given is biochemical. The note with it: cell lysates enriched with acid ceramidase, 1 hour pre-incubation, pH 4.5, substrate Rbm 14-12 at 6.3 μM, room temperature, 1 or two hours; read-out: average IC50 value for the 1 and 2 hour time points. Here is the method: Inhibition of acid ceramidase activity by compound 25 of Table 1 was evaluated in a fluorescent intensity assay using a fluorogenic substrate Rbm 14-12 […]. Compound 25 was incubated with cell lysates enriched with acid ceramidase for 1 hour in an assay buffer containing 50 mM NaOAc and 100 mM NaCl at pH 4.5. The reaction was initiated by the addition of the substrate at a final concentration of 6.3 μM and the mixture was incubated at room temperature for 1 or two hours. At the appropriate time, the reaction was quenched by the addition of methanol and treated with NaIO4 (fresh 2.5 mg/ml solution was made in 100 mM glycine/NaOH buffer, pH 10.6), followed by incubation for 1 hour at room temperature. Fluorescent intensity was measured using a plate reader at ex 355 nm and em 460 nm.

For `O=C(NCCCCc1ccccc1)n1c(=O)oc2cc(-c3ccc(F)cc3)ccc21` [compound 25, 6-(4-fluorophenyl)-2-oxo-N-(4-phenylbutyl)-1,3-benzoxazole-3-carboxamide], the IC50 fell in the range of 250 to 500 nM.

What is called IC50 is the midpoint of a concentration-inhibition curve.

The values are drawn from US20180369211A1, “METHODS AND COMPOSITIONS FOR TREATING NEURODEGENERATIVE DISORDERS” (Lysosomal Therapeutics Inc., priority 2016, published 2018).
